Data taken from US8828993B2, “Psychotropic agents having glutamate NMDA activity” (Ramot At Tel-Aviv University Ltd., priority 2006, dated 2014).
Entries after “also recorded” stand apart in the source; their conditions may differ. Counter-ions that a name gives are not always drawn.

What was measured:
Format in all cases: in vivo
[1] = system: rats pretreated with MK-801; assay: Morris Water Maze in rats pretreated with MK-801; details: rats pretreated with MK-801 0.15 mg/kg i.p.
Procedure: (§1) The Morris Water Maze is a well known test aimed to assess spatial cognitive tasks (Anger, et al., Animal test systems to study behavioral dysfunctions of neurodegenerative disorders, Neurotoxicology, 12, 403-13 (1991)). The maze consists of a circular pool measuring 1.80 m in diameter 60 cm in height. The pool was filled with water (21±1° C.) to a depth of 30 cm. A circular hidden escape platform (10 cm in diameter) was placed just below the water surface. The test room contained several permanent extra maze cues such as the rat housing rack, laboratory table, posters on the walls, etc.
as §1, with “tasks.” for “tasks (Anger, et al., Animal test systems to study behavioral dysfunctions of neurodegenerative disorders, Neurotoxicology, 12, 403-13 (1991)).”
In the experiment rats were given Compound 1 orally on day 1 and the first test begun 90 minute later, six trials per day, for 3 consecutive days, to find the hidden platform (acquisition phase). The escape latency, i.e., the time required by the rat to find and climb onto the platform, was recorded for up to 120 sec. Each rat was allowed to remain on the platform for 30 sec, after which it was removed to its home cage.
A video camera was placed above the center of the pool for tracking the rat, and a video tracking system (Noldus) with online digital output directly fed data into a computer. Data were analyzed using EthoVision automated tracking system software (Noldus).
Compound 1 at both doses decreased the latency to the platform on day 3 of the experiment but not on days 1 and 2.
The relief of cognitive impairments was also shown in the use of Compound 6. […] Compound 6 at 10 mg/kg decreased the latency to the platform on days 2 and 3 of the experimentation.

mice [2] = assay: Elevated plus maze
From the text: The elevated plus maze is a widely used method to test anxiety in rodents (Pellow, et al., Pharmacol. Biochem. Behav., 24, 525-529 (1986)). The apparatus was made of wood and painted black, with two opposing open arms and two opposite enclosed arms of the same size. The arms were attached to a central square shaped in a plus sign. The whole apparatus was placed 50 cm above the floor. Anxious animals refrain from entering the open arm and prefer the closed arm.
In a typical experiment, Balb/c male mice were administered orally with 10 and 20 mg/kg of Compound 1 or Compound 6 and with a vehicle or with diazepam (1 mg/kg) administered per os (p.o.) 90 minutes before they were placed in the center of the maze. The frequency to the open aims, the time spent in the different arms, the velocity and number of rearings of the animals in each zone were recorded (Noldus).
Male Balb/c mice were used. Animals were transferred to the behavior room 24 hr before the experiment. Compound 1 or diazepam were administered orally 90 minutes before testing. Each treatment group included 5 animals.
Male Balb/c mice were used. Animals were transferred to the behavior room 24 hr before the experiment. Compound 6 (3, 9, or 27 mg/kg) or vehicle were administered orally 90 minutes before testing. Each treatment group included 5 animals.

mice [3] = assay: Open field exploratory locomotor activity; details: for sedative effect: mice, i.p.
From the text: Open Field Exploratory Locomotor Activity
The procedure consists of subjecting an animal, usually a rodent, to an unknown large environment from which escape is prevented by surrounding walls. The open field test is now one of the most popular procedures in animal psychology (Crawley, et al., Exploratory behavior models of anxiety in mice, Neurosci Biobehav Rev 9 (1985), pp. 37-44). The procedure involves forced confrontation of a rodent with the situation. The animal is placed in the center or close to the walls of the apparatus and the following behavioral items are recorded for a period ranging from 5 to 20 minutes: horizontal locomotion, and frequency of rearing or leaning. In such a situation, rodents spontaneously prefer the periphery of the apparatus to activity in the central parts of the open field. Increase in time spent in the central part as well as of the ratio central/total locomotion or decrease of the latency to enter the central part are indications of anxiolysis.
In a typical test, an individual mouse was placed in a novel environment of a square open field (50×50 cm), the floor of which had been divided into 3 areas, as shown below. The area within 10 cm of the chamber walls was termed the periphery. […] One hour after drug administration, the animal was placed in the same corner of the field. The animal behavior in the open field was recorded by videotaping for 20-60 minutes and analyzed subsequently digitally using the Noldus software for animal behavior. The measurements included velocity, distance moved, frequency of visits to the central area, number of rearing events.
The effect of Compound 1 on the behavior of mice in the open field and the dose-dependent effect following i.p administration were evaluated. Naïve male Mice (Balb/c, Harlan Israel) were used. The animals, divided 3 to 5 animals per group, were administered with Compound 1 (12.5, 25, 50, 75 and 100 mg/kg) 1 hr prior to placing each in an open field. Mice were monitored for 1 hr (every 5 minutes) using the Noldus system, and their distance moved, velocity, time of immobility and number of rearings was recorded.
(§2) The effect of Compound 6 on the behavior of mice in the open field was also examined. Naïve male mice (Balb/c, Harlan Israel) were used. Animals (6 per group) were administered with Compound 6 (12.5, 25 and 50 mg/kg, i.p.) 1 hr prior to placing each in the open field. Mice were followed for 1 hr (every 5 minutes) using the Noldus system, and their distance moved, velocity, time of immobility and number of rearings was recorded.
The effect of oral administration of Compound 1 in the open field was tested by orally administering to male ICR mice varying amounts of Compound 1 (5, 10 and 20 mg/kg) or vehicle. Animals were placed in the open field 1 hr after drug administration and horizontal and vertical behavior was recorded for 20 minutes.
as §2, with “The dose-dependent” for “The”, “3 administered i.p.” for “6 on the behavior of mice”, “tested.” for “examined.”, “Animals” for “Animals (6 per group)”, “3” for “6”, “i.p., 6 per group)” for “i.p.)”
Animals were administered orally with Compound 1 (5, 10 and 20 mg/kg) or with a vehicle. Animals were placed in the open field 1 hr after drug administration and animal track was registered for 20 minutes. The time spent in the center (zone 3) and the frequency to the center were indicators of anxiety.

[4] = male Balb/c mice, 20 mg/kg oral
[5] = male Balb/c mice, oral, diazepam 1 mg/kg
[6] = male ICR mice, oral 10 and 20 mg/kg, 1 hr after administration, 20 minutes
[7] = Balb/c mice, 12.5, 25 and 50 mg/kg i.p.

In the case of COC(=O)C(N)CN1CCN(C2=Nc3ccccc3Nc3sc(C)cc32)CC1 (stereo not shown) [Compound 1, 2-amino-3-[4-(2-methyl-10H-thieno[2,3-b][1,5]benzodiazepin-4-yl)-piperazin-1-yl]-propionic acid, methyl ester hydrochloride salt], the “latency to the platform” value ([1]; 10 and 20 mg/kg p.o. on day 1, day 3) is reported as “decreased”, the “anxiolytic activity (overall conclusion)” value (mice [2]; 20 mg/kg) is reported as “anxiolytic activity which resembles diazepam” and the “time spent in the center” value (mice [2]; [4]) is reported as “increased”. The “time spent in the closed and the open arm” value (mice [2]; [4]) was “did not significantly affect”, the “frequency to the open arm and the center” value (mice [2]; male Balb/c mice, 20 mg/kg oral, 90 minutes before testing) was “frequented significantly more” and the “number of rearings in the open arm” value (mice [2]; [5]) was “increased number of rearings”. The velocity (mice [2]; [5]) was “not”, the “horizontal and vertical motility parameters” value (mice [3]; Balb/c mice, 12.5 mg/kg i.p.) was “did not modify significantly” and the rearing frequency (mice [3]; Balb/c mice, 12.5 mg/kg i.p.) was “tended to increase”. The “sedative effect / motility” value (mice [3]; Balb/c mice, doses higher than 50 mg/kg i.p.) was “marked sedative effect”, the “horizontal and vertical motility” value (mice [3]; Balb/c mice, doses up to 50 mg/kg i.p.) was “mild inhibition” and the “horizontal and vertical motility” value (mice [3]; Balb/c mice, i.p. 12.5, 25, 50, 75 and 100 mg/kg, 1 hr prior, monitored 1 hr) was “dose dependent decrease”. For the same molecule, the “anxiety parameters (time spent in the center and frequency to the center)” value (mice [3]; male ICR mice, 20 mg/kg p.o., 1 hr before, 20 minutes) was “anxiolytic activity”, the “horizontal behavior (velocity and distance moved)” value (mice [3]; [6]) was “slightly decreased” and the “vertical behavior (number of rearings)” value (mice [3]; [6]) was “increased”. The sedative effect (mice [3]) was “mild sedative effect”.

In the case of CNC(CN1CCN(C2=Nc3ccccc3Nc3sc(C)cc32)CC1)C(=O)OC (stereo not shown) [Compound 6, 2-N-methylamino-3-[4-(2-methyl-10H-thieno[2,3-b][1.5]benzodiazepin-4-yl)-piperazin-1-yl]propionic acid, methyl ester trihydrochloride salt], the “latency to the platform” value ([1]; 10 mg/kg p.o. once on day 1, days 2 and 3) is reported as “decreased”, the “time spent in the closed arm” value (mice [2]; male Balb/c mice, 3, 9 and 27 mg/kg orally) is reported as “did not significantly affect” and the “time spent in the open arms” value (mice [2]; male Balb/c mice, 3, 9 and 27 mg/kg orally, 90 minutes before testing, trihydrochloride salt) is reported as “more time; also recorded: dose-dependently increase”. For the same molecule, the “time spent in the center” value (mice [2]; male Balb/c mice, 3, 9 and 27 mg/kg orally, trihydrochloride salt) was “less and decrease”, the “duration of “not moving” periods” value (mice [3]; [7]) was “increased” and the “horizontal (distance) and vertical motility (number of rearings)” value (mice [3]; [7]) was “inhibition”. For the same molecule, the “motility (distance moved and velocity)” value (mice [3]; Balb/c mice, 12.5, 25 and 50 mg/kg i.p., 1 hr prior) was “dose dependent decrease”, the “effect on motility (distance moved and velocity)” value (mice [3]; Balb/c mice, up to 50 mg/kg i.p.) was “mild” and the sedative effect (mice [3]) was “mild sedative effect”.
